Reference: the NIST ThermoML archive (doi:10.1021/je7004837)
Numbers after ± are expanded uncertainties.

Details: Liquid, Ebulliometric method (Recirculating still)

FC(C(F)(F)F)C(F)(F)F [1,1,1,2,3,3,3-heptafluoropropane]
vapor or sublimation pressure (273.15 K): 194 ± 2 kPa
vapor or sublimation pressure (283.15 K): 280 ± 2 kPa
vapor or sublimation pressure (293.15 K): 389 ± 3 kPa
vapor or sublimation pressure (303.15 K): 527 ± 3 kPa
vapor or sublimation pressure (313.15 K): 704 ± 3 kPa
vapor or sublimation pressure (323.15 K): 920 ± 4 kPa

CCCC [butane]
vapor or sublimation pressure (273.15 K): 104 ± 2 kPa
vapor or sublimation pressure (283.15 K): 150 ± 2 kPa
vapor or sublimation pressure (293.15 K): 208 ± 2 kPa
vapor or sublimation pressure (303.15 K): 284 ± 2 kPa
vapor or sublimation pressure (313.15 K): 378 ± 2 kPa
vapor or sublimation pressure (323.15 K): 494 ± 3 kPa
